{"source": "paper PMC8662559", "about": "“The Effects of a Novel Non-catechol Dopamine Partial Agonist on Working Memory in the Aged Rhesus Monkey” (Frontiers in Aging Neuroscience, 2021)", "key": {"[1]": {"molecular_target": "T1, human D1 receptor (Homo sapiens, UniProt P21728)", "T1 construct": "gene DRD1; human D1", "T1 sequence (P21728 whole entry)": "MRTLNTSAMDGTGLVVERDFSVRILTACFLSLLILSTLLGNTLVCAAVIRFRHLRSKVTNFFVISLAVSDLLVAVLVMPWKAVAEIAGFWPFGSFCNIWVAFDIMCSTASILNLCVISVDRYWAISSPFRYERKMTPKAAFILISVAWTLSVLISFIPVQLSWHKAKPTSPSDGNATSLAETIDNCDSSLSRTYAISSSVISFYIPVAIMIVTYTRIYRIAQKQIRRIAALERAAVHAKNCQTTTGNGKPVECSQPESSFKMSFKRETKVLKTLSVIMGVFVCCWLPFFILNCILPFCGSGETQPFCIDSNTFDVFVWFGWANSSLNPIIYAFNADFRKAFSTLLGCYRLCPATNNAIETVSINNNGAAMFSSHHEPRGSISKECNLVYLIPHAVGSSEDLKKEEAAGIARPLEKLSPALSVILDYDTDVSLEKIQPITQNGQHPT", "assay": "binding assay (method of Gray et al., […])", "type": "cell-based"}, "[2]": {"molecular_target": "T2, non-human primate D1 receptor (Macaca fascicularis, UniProt G7P6Y1)", "T2 construct": "native receptor in striatal membrane homogenate", "T2 sequence (G7P6Y1 1-446)": "as the sequence (P21728 whole entry) above, with N311I counted along it", "assay": "radioligand competition binding", "type": "biochemical", "details": "1.0 nM [3H]-SCH23390, striatal membranes, 4 mM MgSO4, 0.5 mM EDTA, pH 7.4, 37 °C; Cheng-Prusoff"}, "[3]": {"molecular_target": "T1, human D1 receptor", "assay": "cAMP functional assay (method of Gray et al., […])", "type": "cell-based", "details": "partial agonist"}}, "data": [{"substance": "PF-6294", "values": [{"measurement": "Ki", "setting": "[1]", "value": 17, "unit": "nM"}, {"measurement": "Ki", "setting": "[2]", "value": 14, "unit": "nM"}, {"measurement": "EC50", "setting": "[3]", "value": 36, "unit": "nM"}]}]}
